Key:
Experiment in all cases: HTS ATP-utilizing enzyme assay, off-chip mobility-shift (Caliper HTS 250)
Type in all cases: biochemical
Conditions in all cases: kinase named = inhibitory activity/selectivity; test compound 10 μM; active = greater than three-sigma from mean
[1] = target: T1, AKT1 (Homo sapiens, UniProt P31749)
T1 construct: purchased Upstate 14-276
Method in brief: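 AKT1 activity was measured by off-chip mobility shift (Caliper HTS 250) as the ratio of peptide substrate to phosphorylated product. Test compound was at 10 μM, with 2.5 h incubation at 20–22° C. EDTA wells served as 100% control and DMSO wells as 0%. Hits were called at three-sigma limits.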

[2] = target: CHEK2 (Homo sapiens, UniProt O96017)
Chain of CHEK2 (O96017 whole entry): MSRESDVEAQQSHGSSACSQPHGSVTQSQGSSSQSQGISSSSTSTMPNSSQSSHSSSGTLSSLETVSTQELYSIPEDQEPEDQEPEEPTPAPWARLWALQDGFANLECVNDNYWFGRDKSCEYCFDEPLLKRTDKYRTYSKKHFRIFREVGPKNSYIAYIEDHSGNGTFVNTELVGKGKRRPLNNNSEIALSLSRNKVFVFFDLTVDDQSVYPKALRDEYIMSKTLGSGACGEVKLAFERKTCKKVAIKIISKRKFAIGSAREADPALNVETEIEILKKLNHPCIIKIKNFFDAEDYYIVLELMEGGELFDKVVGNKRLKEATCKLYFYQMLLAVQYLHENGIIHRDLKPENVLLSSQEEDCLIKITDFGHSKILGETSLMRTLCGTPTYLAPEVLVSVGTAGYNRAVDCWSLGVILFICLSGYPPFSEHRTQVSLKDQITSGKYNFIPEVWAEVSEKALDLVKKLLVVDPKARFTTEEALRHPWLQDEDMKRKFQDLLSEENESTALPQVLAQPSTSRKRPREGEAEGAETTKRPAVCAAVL
Source text: (§1) The following procedures describe the reagent and plate preparation for a HTS of an ATP-utilizing enzyme, such as a protein kinase, run in an off-chip mobility-shift assay format. The following provides an HTS protocol for running a protein kinase HTS screen on a Caliper HTS 250 microfluidics system. The following parameters are dependent on the protein kinase used and can be determined by one skilled in the art as part of a typical assay development process. For example, the peptide substrate used can be identified from the current literature, by screening a peptide library of potential protein kinase substrates, or by other applicable means accepted in the field.
(§2) Assays to determine the kinase inhibitory activity of chemical entities of the present disclosure were performed using a Caliper HTS 250 microfluidics device, Greiner U-bottom assay plates, a Multidrop for transfer of reagents, and Biomek FX (AMNCBM03) software. Initially, 2.4 μL of a 1 mM solution of a test compound in 100% DMSO was added to a well of the Greiner U-bottom plate. A single Greiner U-bottom plate having 24×16 wells could include multiple test compounds. Next, 40 μL of 1.06× Assay Buffer was added to each well of the assay plate. Using the Biomek FX, 10 μL of 0.5 M EDTA was added by the span-8 to wells, indicated as 100% Control and 2.4 μL of 100% DMSO was added by the span-8 to wells, indicated as 0% Control. Using the Multidrop, 10 μL of 2.5× Enzyme Buffer, followed by 10 μL of 2.5× Substrate Buffer was added to each well of the assay plate. The total reaction volume in each well was 25 μL, and the concentration of the test compound was 10 μM. The assay plate was incubated for 2.5 hrs at 20° C. to 22° C. After the incubation period, using the Multidrop, 45 μL of 1.55× Termination Buffer was added to each well of the assay plate to stop the reaction. The inhibition of the ATP-utilizing enzyme, such as a particular protein kinase, was determined by measuring the ratio of the peptide substrate to phosphorylated product for each well of the assay plate using the Caliper HTS 250 system.
(§3) The use of three-sigma statistical limits represents a conservative method for declaring potential hits among targets. The three-sigma activity, as well as the mean population activity, can be different for each target enzyme. This method has an expected false positive rate, from an in-control measurement process, of […].
(§4) Each chemical entity listed in Table 2 was tested for protein kinase inhibitory activity according to the biological assays and definitions of protein kinase inhibitory activity as described herein. For each exemplary compound listed in Table 2, the inhibitory activity for at least one protein kinase according to the biological assays and definitions of protein kinase inhibitory activity as described herein is indicated.

[3] = target: MAPKAPK-2 (Homo sapiens, UniProt P49137)
Chain of MAPKAPK-2 (P49137 whole entry): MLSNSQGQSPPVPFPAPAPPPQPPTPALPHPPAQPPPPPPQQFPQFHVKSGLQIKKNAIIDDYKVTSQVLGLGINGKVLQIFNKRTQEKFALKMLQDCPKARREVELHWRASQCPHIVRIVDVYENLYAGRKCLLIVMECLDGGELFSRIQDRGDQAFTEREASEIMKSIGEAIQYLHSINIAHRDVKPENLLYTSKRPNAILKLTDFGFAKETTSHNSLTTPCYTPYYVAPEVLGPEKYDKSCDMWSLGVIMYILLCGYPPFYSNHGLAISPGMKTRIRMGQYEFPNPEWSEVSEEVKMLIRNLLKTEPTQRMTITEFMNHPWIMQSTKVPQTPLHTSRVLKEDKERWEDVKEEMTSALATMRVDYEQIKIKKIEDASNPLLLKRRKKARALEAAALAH
Source text: as §1, §2, §3, §4

[4] = target: CDK2/cyclin E (Homo sapiens, UniProt P24941)
Source text: as §1, §2, §3, §4

[5] = target: CDK2 (Homo sapiens, UniProt P24941)
Source text: as §1, §2, §3, §4

[6] = target: T2, FLT-3 (Homo sapiens, UniProt P36888)
T2 sequence (P36888 27-993): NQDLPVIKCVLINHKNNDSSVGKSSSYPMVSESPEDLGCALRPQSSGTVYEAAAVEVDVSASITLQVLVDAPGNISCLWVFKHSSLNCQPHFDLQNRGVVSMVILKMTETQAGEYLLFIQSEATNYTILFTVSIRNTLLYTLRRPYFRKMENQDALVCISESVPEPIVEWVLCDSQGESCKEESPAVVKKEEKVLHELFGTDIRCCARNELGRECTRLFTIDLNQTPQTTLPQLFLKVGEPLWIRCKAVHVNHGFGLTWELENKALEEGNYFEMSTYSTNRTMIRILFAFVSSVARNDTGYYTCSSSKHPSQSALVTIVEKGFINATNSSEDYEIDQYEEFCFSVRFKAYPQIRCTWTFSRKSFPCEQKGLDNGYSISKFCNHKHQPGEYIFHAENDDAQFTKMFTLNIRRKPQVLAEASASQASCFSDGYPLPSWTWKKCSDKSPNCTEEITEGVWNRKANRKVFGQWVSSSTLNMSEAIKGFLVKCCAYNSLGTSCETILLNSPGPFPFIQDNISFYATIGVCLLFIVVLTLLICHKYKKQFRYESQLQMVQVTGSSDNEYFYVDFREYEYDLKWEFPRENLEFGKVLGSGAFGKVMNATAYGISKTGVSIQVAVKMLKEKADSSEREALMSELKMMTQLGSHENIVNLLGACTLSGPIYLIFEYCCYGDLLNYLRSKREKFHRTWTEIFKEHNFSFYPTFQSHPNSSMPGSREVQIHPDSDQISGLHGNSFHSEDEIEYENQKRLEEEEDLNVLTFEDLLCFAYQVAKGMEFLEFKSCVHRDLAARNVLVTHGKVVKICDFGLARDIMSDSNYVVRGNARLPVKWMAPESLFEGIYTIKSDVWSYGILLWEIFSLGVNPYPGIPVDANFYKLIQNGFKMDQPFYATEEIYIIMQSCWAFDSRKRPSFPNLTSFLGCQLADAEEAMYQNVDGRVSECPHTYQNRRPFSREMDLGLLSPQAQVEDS
Source text: as §1, §2, §3, §4

[7] = target: KIT (Homo sapiens, UniProt P10721)
Chain of KIT (P10721 26-976): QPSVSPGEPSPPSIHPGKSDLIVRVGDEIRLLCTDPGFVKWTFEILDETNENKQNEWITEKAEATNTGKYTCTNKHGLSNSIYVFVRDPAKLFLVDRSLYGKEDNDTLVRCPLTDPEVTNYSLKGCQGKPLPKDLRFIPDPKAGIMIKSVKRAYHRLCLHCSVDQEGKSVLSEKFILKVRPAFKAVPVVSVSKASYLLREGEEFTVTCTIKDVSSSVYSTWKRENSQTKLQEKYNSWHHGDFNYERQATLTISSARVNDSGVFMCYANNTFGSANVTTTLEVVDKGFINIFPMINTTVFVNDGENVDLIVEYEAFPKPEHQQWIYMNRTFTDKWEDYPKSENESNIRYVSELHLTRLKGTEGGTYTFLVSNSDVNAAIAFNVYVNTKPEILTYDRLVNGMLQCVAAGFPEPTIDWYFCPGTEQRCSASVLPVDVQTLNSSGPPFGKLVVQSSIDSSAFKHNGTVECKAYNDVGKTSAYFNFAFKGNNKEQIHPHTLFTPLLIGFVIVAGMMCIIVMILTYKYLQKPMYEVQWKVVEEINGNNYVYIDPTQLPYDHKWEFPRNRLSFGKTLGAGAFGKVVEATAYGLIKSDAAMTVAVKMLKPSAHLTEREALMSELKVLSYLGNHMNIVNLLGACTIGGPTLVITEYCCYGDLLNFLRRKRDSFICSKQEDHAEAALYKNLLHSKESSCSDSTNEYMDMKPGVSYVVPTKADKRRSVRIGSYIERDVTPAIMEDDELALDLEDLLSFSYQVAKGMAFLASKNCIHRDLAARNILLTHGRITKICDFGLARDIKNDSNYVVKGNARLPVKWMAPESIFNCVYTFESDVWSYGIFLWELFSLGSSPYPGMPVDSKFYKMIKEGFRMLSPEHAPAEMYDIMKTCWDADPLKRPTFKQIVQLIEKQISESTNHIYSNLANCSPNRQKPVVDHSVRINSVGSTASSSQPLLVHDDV
Source text: as §1, §2, §3, §4

[8] = target: T3, ZAP70 (Homo sapiens, UniProt P43403)
T3 sequence (P43403 1-619): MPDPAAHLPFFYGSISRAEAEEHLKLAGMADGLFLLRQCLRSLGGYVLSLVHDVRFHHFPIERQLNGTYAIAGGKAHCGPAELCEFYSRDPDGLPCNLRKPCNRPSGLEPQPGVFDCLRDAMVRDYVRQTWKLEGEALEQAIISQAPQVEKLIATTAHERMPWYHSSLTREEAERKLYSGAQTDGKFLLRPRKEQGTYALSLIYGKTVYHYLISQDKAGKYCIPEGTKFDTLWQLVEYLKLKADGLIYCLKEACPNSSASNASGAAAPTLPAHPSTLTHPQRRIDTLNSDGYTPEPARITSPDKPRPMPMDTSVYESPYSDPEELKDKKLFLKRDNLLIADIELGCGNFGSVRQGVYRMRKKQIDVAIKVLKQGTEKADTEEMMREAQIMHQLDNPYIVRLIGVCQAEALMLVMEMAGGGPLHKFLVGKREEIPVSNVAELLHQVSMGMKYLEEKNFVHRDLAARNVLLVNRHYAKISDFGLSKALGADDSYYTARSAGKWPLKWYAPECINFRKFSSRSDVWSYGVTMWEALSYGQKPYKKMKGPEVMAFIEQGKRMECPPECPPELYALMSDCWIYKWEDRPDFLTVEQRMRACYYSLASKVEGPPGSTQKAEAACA
Source text: as §1, §2, §3, §4

[9] = target: SYK (Homo sapiens, UniProt P43405)
Source text: as §1, §2, §3, §4

[10] = target: GSK-3-α (Homo sapiens, UniProt P49840)
Chain of GSK-3-α (P49840 whole entry): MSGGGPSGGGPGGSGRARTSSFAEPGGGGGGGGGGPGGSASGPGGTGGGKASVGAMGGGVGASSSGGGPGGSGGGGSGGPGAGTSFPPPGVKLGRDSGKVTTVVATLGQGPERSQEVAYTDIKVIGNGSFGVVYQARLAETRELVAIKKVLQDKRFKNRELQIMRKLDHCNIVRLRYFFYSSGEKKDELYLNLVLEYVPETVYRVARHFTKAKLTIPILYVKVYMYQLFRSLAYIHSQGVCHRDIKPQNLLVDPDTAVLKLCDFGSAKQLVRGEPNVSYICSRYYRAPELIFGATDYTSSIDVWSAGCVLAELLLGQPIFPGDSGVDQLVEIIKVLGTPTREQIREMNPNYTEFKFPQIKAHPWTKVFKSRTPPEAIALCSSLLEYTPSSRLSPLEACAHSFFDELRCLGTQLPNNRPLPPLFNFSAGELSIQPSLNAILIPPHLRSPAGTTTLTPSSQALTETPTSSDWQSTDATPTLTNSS
Source text: as §1, §2, §3, §4

[11] = target: T4, AURORA-A (Homo sapiens, UniProt O14965)
T4 sequence (O14965 1-403): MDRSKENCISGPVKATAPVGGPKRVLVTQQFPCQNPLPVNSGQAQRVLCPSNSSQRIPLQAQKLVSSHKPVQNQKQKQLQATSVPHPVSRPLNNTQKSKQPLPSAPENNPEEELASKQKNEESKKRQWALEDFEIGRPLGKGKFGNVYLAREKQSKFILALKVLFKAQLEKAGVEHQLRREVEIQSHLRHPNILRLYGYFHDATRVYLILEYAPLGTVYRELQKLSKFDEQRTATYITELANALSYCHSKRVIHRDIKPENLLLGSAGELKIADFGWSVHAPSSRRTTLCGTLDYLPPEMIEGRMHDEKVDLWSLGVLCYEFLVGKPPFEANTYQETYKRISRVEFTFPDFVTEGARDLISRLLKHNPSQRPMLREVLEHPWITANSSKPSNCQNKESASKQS
Source text: as §1, §2, §3, §4

[12] = target: INSR (Homo sapiens, UniProt P06213)
Chain of INSR (P06213 28-1382): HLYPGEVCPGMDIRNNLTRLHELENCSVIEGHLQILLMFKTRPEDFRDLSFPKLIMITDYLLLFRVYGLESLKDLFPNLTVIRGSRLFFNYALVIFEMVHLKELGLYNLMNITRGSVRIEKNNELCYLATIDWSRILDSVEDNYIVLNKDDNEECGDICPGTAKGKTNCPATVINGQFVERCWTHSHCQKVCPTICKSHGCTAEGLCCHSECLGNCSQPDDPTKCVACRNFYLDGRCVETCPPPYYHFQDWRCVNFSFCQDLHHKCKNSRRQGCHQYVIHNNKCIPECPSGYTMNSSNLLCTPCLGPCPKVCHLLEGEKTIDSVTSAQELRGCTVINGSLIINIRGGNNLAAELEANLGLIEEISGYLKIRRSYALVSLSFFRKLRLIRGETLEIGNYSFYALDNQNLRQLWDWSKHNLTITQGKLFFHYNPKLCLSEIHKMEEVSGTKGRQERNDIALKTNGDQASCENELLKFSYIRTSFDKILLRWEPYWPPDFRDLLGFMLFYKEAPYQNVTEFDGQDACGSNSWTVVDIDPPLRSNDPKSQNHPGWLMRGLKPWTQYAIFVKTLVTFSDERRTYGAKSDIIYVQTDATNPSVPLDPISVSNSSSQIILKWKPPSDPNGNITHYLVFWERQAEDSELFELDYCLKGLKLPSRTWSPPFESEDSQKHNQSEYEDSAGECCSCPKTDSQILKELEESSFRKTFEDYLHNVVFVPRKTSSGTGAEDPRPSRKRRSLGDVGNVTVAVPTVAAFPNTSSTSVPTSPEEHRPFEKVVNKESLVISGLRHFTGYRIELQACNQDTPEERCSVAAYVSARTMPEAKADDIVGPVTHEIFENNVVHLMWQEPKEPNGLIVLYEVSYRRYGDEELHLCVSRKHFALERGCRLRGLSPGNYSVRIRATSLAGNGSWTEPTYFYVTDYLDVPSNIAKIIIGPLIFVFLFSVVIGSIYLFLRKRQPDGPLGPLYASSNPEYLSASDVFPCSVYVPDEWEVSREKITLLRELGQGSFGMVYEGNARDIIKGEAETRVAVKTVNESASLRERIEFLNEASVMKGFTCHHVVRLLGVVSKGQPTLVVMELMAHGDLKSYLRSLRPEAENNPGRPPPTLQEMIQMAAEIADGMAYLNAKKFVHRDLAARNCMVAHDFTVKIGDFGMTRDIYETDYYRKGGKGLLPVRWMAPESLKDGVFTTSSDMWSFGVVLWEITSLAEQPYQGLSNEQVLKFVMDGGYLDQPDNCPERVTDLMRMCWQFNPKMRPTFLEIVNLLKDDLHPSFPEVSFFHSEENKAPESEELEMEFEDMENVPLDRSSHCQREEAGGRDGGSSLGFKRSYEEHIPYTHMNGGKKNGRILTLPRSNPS
Source text: as §1, §2, §3, §4

[13] = target: T5, DYRK2 (Homo sapiens, UniProt Q92630)
T5 sequence (Q92630 1-601): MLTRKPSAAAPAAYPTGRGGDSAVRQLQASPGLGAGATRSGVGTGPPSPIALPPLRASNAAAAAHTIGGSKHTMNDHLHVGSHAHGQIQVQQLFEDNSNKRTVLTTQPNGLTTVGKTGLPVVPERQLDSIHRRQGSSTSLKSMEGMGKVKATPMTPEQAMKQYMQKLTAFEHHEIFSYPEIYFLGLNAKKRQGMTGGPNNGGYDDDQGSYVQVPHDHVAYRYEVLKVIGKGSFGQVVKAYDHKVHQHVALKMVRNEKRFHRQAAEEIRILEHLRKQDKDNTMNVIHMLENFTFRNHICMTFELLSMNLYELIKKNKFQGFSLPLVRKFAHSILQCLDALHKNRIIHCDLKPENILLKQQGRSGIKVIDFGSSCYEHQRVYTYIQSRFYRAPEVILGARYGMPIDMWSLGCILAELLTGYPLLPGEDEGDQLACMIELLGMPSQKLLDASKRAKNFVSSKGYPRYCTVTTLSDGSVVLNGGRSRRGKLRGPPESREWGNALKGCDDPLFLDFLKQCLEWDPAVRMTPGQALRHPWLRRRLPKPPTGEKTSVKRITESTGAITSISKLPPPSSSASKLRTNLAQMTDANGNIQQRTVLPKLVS
Source text: as §1, §2, §3, §4

T1 sequence (P31749 whole entry): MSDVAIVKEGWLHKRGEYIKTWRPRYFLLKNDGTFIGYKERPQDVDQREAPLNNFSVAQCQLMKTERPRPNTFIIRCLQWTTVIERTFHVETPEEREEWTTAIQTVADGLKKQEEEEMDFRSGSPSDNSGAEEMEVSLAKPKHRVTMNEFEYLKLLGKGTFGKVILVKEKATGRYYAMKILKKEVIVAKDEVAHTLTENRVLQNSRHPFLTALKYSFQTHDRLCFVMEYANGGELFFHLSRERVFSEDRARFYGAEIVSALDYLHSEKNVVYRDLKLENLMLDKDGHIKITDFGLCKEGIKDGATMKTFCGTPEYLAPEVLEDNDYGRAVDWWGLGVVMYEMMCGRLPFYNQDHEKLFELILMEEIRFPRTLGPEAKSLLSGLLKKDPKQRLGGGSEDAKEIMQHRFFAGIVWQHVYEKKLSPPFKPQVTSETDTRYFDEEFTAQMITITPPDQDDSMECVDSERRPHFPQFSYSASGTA

Q: With `COc1ccc(-c2csc(N(CCCN3CCN(C)CC3)C(=O)c3ccco3)n2)cc1` [N-(4-(4-methoxyphenyl)thiazol-2-yl)-N-(3-(4-methylpiperazin-1-yl)propyl)furan-2-carboxamide] as the compound, how does the Activity [1] read?
A: Its Activity is “AKT1”.

Q: What about the Activity [2] of the same compound?
A: The Activity was “CHEK2”.

Q: What about the Activity [3] of the same compound?
A: Its Activity is “MAPKAPK-2”.

Q: `COc1ccc(-c2csc(N(CCCN3CCOCC3)C(=O)c3cc(C)n(C)c3C)n2)cc1` [N-(4-(4-methoxyphenyl)thiazol-2-yl)-1,2,5-trimethyl-N-(3-morpholinopropyl)-1H-pyrrole-3-carboxamide] was tested. Which Activity [4] did it give?
A: The Activity was “CDK2/cyclin E”.

Q: Which Activity [5] does the source give for `COc1ccc(-c2csc(N(CCCN3CCOCC3)C(=O)c3cc(Cl)sc3Cl)n2)cc1` [2,5-dichloro-N-(4-(4-methoxyphenyl)thiazol-2-yl)-N-(3-morpholinopropyl)thiophene-3-carboxamide] here?
A: Its Activity is “CDK2”.

Q: For `COc1ccc(-c2csc(N(CCCN3CCOCC3)C(=O)c3ccc(C)cc3)n2)cc1` [N-(4-(4-methoxyphenyl)thiazol-2-yl)-4-methyl-N-(3-morpholinopropyl)benzamide], which Activity [6] is on record?
A: Its Activity is “FLT-3”.

Q: Which Activity [6] does the source give for `COc1ccc(-c2csc(N(CCCN3CCOCC3)C(=O)c3ccc([N+](=O)[O-])s3)n2)cc1` [N-(4-(4-methoxyphenyl)thiazol-2-yl)-N-(3-morpholinopropyl)-5-nitrothiophene-2-carboxamide] here?
A: Its Activity is “FLT-3”.

Q: And the Activity [7]?
A: The Activity was “KIT”.

Q: And the Activity [8]?
A: Its Activity is “ZAP70”.

Q: `CCN(CC)c1ccc(-c2csc(N(CCCN3CCOCC3)C(=O)c3cccs3)n2)cc1` [N-(4-(4-(diethylamino)phenyl)thiazol-2-yl)-N-(3-morpholinopropyl)thiophene-2-carboxamide] was tested. Which Activity [1] did it give?
A: The Activity was “AKT1”.

Q: And the Activity [9]?
A: The Activity was “SYK”.

Q: Which Activity [10] does the source give for `COc1ccc(OC)c(-c2csc(N(Cc3ccco3)C(=O)CCC(=O)O)n2)c1` [4-((4-(2,5-dimethoxyphenyl)thiazol-2-yl)(furan-2-ylmethyl)amino)-4-oxobutanoic acid] here?
A: Its Activity is “GSK-3-α”.

Q: What about the Activity [11] of the same compound?
A: Its Activity is “AURORA-A”.

Q: With `COc1ccc(-c2csc(N(CCCN3CCN(C)CC3)C(=O)c3cccs3)n2)cc1` [N-(4-(4-methoxyphenyl)thiazol-2-yl)-N-(3-(4-methylpiperazin-1-yl)propyl)thiophene-2-carboxamide] as the compound, how does the Activity [1] read?
A: Its Activity is “AKT1”.

Q: And the Activity [12]?
A: Its Activity is “INSR”.

Q: Which results are given for `O=C(c1cccs1)N(CCCN1CCOCC1)c1nc(-c2cccnc2)cs1` [N-(3-morpholinopropyl)-N-(4-(pyridin-3-yl)thiazol-2-yl)thiophene-2-carboxamide]?
A: Activity [1]: AKT1; Activity [4]: CDK2/cyclin E

Q: What does the source list for `CCCCN(C(=O)CCC(=O)O)c1nc(-c2cc(OC)ccc2OC)cs1` [4-(butyl(4-(2,5-dimethoxyphenyl)thiazol-2-yl)amino)-4-oxobutanoic acid]?
A: Activity [10]: GSK-3-α; Activity [11]: AURORA-A

Q: `COc1ccc(-c2csc(N(CC(C)C)C(=O)CCC(=O)O)n2)cc1` [4-(isobutyl(4-(4-methoxyphenyl)thiazol-2-yl)amino)-4-oxobutanoic acid] was tested. Which Activity [13] did it give?
A: The Activity was “DYRK2”.

Q: What about the Activity [11] of the same compound?
A: The Activity was “AURORA-A”.

— US7795290B2 (Genentech, Inc., priority 2004, dated 2010)
